Data: patent publication US6544985B2, “Dihydro-benzo [b][1,4]diazepin-2-one derivatives” (Hoffman-La Roche Inc., priority 2001, dated 2003)

Point of comparison: `CN(C)c1cc2c(cc1C(F)(F)F)NC(=O)CC(c1cccc(-c3ccnn3CCO)c1)=N2` [Example 81, 7-Dimethylamino-4-{3-[2-(2-hydroxy-ethyl)-2H-pyrazol-3-yl]-phenyl}-8-trifluoromethyl-1,3-dihydro-benzo[b][1,4]diazepin-2-one], melting point 138 °C. Against it:
- CN(C)c1cc2c(cc1C(F)(F)F)NC(=O)CC(c1cccc(-n3nncc3CNCC(F)(F)F)c1)=N2 [Example 76, 7-Dimethylamino-4-(3-{5-[(2,2,2-trifluoro-ethylamino)methyl]-[1,2,3]triazol-1-yl}-phenyl)8-trifluoromethyl-1,3-dihydro-benzo[b][1,4]diazepin-2-one] — higher, 168 to 170 °C
- CN(CC1CC1)c1cc2c(cc1C(F)(F)F)NC(=O)CC(c1cccc(-n3nncc3CO)c1)=N2 [Example 77, 7-(Cyclopropylmethyl-methyl-amino)-4-[3-(5-hydroxymethyl-[1,2,3]triazol-1-yl)-phenyl]-8-trifluoromethyl-1,3-dihydro-benzo[b][1,4]diazepin-2-one] — higher, 212 °C
- CN(C)c1cc2c(cc1C(F)(F)F)NC(=O)CC(c1cccc(-n3cc(CNC4CC4)cn3)c1)=N2 [Example 79, 4-[3-(4-Cyclopropylaminomethyl-pyrazol-1-yl)-phenyl]-7-dimethylamino-8-trifluoromethyl-1,3-dihydro-benzo[b][1,4]diazepin-2-one] — lower, 135 °C
- CN(CC1CC1)c1cc2c(cc1C(F)(F)F)NC(=O)CC(c1cccc(-n3nncc3CNC3CC3)c1)=N2 [Example 80, 4-[3-(5-Cyclopropylaminomethyl-[1,2,3]triazol-1-yl)-phenyl]-7-(cyclopropylmethyl-methyl-amino)-8-trifluoromethyl-1,3-dihydro-benzo[b][1,4]diazepin-2-one] — lower, 35 to 46 °C
- CN(c1cc2c(cc1C(F)(F)F)NC(=O)CC(c1ccnc(C#N)c1)=N2)C1CC1 [Example 83, 4-[8-(Cyclopropyl-methyl-amino)-4-oxo-7-trifluoromethyl-4,5-dihydro-3H-benzo[b][1,4]diazepin-2-yl]-pyridine-2-carbonitrile] — higher, 200 to 205 °C
- CN(C)c1cc2c(cc1C(F)(F)F)NC(=O)CC(c1cccc(-n3nncc3CCO)c1)=N2 [Example 85, 7-Dimethylamino-4-{3-[5-(2-hydroxy-ethyl)-[1,2,3]triazol-1-yl]-phenyl}-8-trifluoromethyl-1,3-dihydro-benzo[b][1,4]diazepin-2-one] — higher, 172 to 175 °C
- CN(C)c1cc2c(cc1C(F)(F)F)NC(=O)CC(c1cccc(-n3nccc3CO)c1)=N2 [Example 86, 7-Dimethylamino-4-[3-(5-hydroxymethyl-pyrazol-1-yl)-phenyl]-8-trifluoromethyl-1,3-dihydro-benzo[b][1,4]diazepin-2-one] — higher, 228 to 229 °C
- CN(C)c1cc2c(cc1C(F)(F)F)NC(=O)CC(c1cccc(-n3ccnn3)c1)=N2 [Example 87, 7-Dimethylamino-4-(3-[1,2,3]triazol-1-yl-phenyl)-8-trifluoromethyl-1,3-dihydro-benzo[b][1,4]diazepin-2-one] — higher, 210 to 212 °C
- Cc1cc2c(cc1N(C)C)N=C(c1cccc(C#N)c1)CC(=O)N2 [Example 89, 3-(8-Dimethylamino-7-methyl-4-oxo-4,5-dihydro-3H-benzo[b][1,4]diazepin-2-yl)-benzonitrile] — higher, 257 °C
- Cc1cc2c(cc1N(C)C)N=C(c1cccc(-n3nncc3CO)c1)CC(=O)N2 [Example 90, 7-Dimethylamino-4-[3-(5-hydroxymethyl-[1,2,3]triazol-1-yl)-phenyl]-8-methyl-1,3-dihydro-benzo[b][1,4]diazepin-2-one] — higher, 190 °C
- CN(C)c1cc2c(cc1C#N)NC(=O)CC(c1cccc(C#N)c1)=N2 [Example 91, 2-(3-Cyano-phenyl)-8-dimethylamino-4-oxo-4,5-dihydro-3H-benzo[b][1,4]diazepine-7-carbonitrile] — higher, 251 °C
- CCCN(C)c1cc2c(cc1C)NC(=O)CC(c1cccc(-n3nncc3CO)c1)=N2 [Example 93, 4-[3-(5-Hydroxymethyl-[1,2,3]triazol-1-yl)-phenyl]-8-methyl-7-(methyl-propyl-amino)-1,3-dihydro-benzo[b][1,4]diazepin-2-one] — higher, 186 °C
- CCN(C)c1cc2c(cc1C)NC(=O)CC(c1cccc(-n3nncc3CO)c1)=N2 [Example 94, 7-(Ethyl-methyl-amino)-4-[3-(5-hydroxymethyl-[1,2,3]triazol-1-yl)-phenyl]-8-methyl-1,3-dihydro-benzo[b][1,4]diazepin-2-one] — higher, 207 °C
- CN(C)c1cc2c(cc1C#N)NC(=O)CC(c1cccc(-n3nncc3CO)c1)=N2 [Example 95, 8-Dimethylamino-2-[3-(5-hydroxymethyl-[1,2,3]triazol-1-yl)-phenyl]-4-oxo-4,5-dihydro-3H-benzo[b][1,4]diazepine-7-carbonitrile] — higher, 234 °C
- CC(C)N(C)c1cc2c(cc1Cl)NC(=O)CC(c1cccc(-n3nncc3CO)c1)=N2 [Example 96, 8-Chloro-4-[3-(5-hydroxymethyl-[1,2,3]triazol-1-yl)-phenyl]-7-(isopropyl-methyl-amino)-1,3-dihydro-benzo[b][1,4]diazepin-2-one] — higher, 207 °C
- CCCN(C)c1cc2c(cc1C)NC(=O)CC(c1cccc(-c3cc(C)no3)c1)=N2 [Example 97, 8-Methyl-4-[3-(3-methyl-isoxazol-5-yl)-phenyl]-7-(methyl-propyl-amino)-1,3-dihydro-benzo[b][1,4]diazepin-2-one] — higher, 194 °C
- Cc1cc(-c2cccc(C3=Nc4cc(N(C)C)c(C#N)cc4NC(=O)C3)c2)on1 [Example 98, 8-Dimethylamino-2-[3-(3-methyl-isoxazol-5-yl)-phenyl]-4-oxo-4,5-dihydro-3H-benzo[b][1,4]diazepine-7-carbonitrile] — higher, 248 °C
- Cc1cc(-c2cccc(C3=Nc4cc(N(C)C)c(C)cc4NC(=O)C3)c2)on1 [Example 100, 7-Dimethylamino-8-methyl-4-[3-(3-methyl-isoxazol-5-yl)-phenyl]-1,3-dihydro-benzo[b][1,4]diazepin-2-one] — higher, 204 °C
- Cc1cc(-c2cccc(C3=Nc4cc(N(C)CC(C)C)c(Cl)cc4NC(=O)C3)c2)on1 [Example 102, 8-Chloro-7-(isobutyl-methyl-amino)-4-[3-(3-methyl-isoxazol-5-yl)-phenyl]-1,3-dihydro-benzo[b][1,4]diazepin-2-one] — higher, 194 °C
- N#Cc1cc2c(cc1N1CCCC1)N=C(c1cccc(-n3nncc3CO)c1)CC(=O)N2 [Example 103, 2-[3-(5-Hydroxymethyl-[1,2,3]triazol-1-yl)-phenyl]-4-oxo-8-pyrrolidin-1-yl-4,5-dihydro-3H-benzo[b][1,4]diazepine-7-carbonitrile] — higher, 241 °C
- Cc1cc(-c2cccc(C3=Nc4cc(N5CCCC5)c(C#N)cc4NC(=O)C3)c2)on1 [Example 104, 2-[3-(3-Methyl-isoxazol-5-yl)-phenyl]-4-oxo-8-pyrrolidin-1-yl-4,5-dihydro-3H-benzo[b][1,4]diazepine-7-carbonitrile] — higher, 267 °C
- CCCN(C)c1cc2c(cc1C#N)NC(=O)CC(c1cccc(-n3nncc3CO)c1)=N2 [Example 105, 2-[3-(5-Hydroxymethyl-[1,2,3]triazol-1-yl)-phenyl]-8-(methyl-propyl-amino)-4-oxo-4,5-dihydro-3H-benzo[b][1,4]diazepine-7-carbonitrile] — higher, 221 °C
